Columns and labels:
[1] = Stability of 1.25 mM coelenterazine-h in 50% ethanol and 50% propylene glycol with or without 225 mM ATT, HPLC and Arrhenius plots; format: physicochemical
Method: The stability of coelenterazine-h in the presence and absence of ATT was measured over time at different temperatures. Specifically, 1.25 mM coelenterazine-h was present in a solution of 50% ethanol and 50% propylene glycol (i.e., the solution without ATT) or a solution of 50% ethanol and 50% propylene glycol with 225 mM ATT (i.e., the solution with ATT). These two solutions were incubated at −20° C., room temperature (RT), 40° C., or 60° C. and analyzed at for 0 days, 1 day, 3 days, 7 days, 15 days, and 30 days.
(§1) Following incubation, high performance liquid chromatography (HPLC) was utilized to identify the components of the respective solutions at each time point. Specifically, an Agilent 1100 HPLC instrument was used and equipped with a quaternary pump, thermostatted autosampler and column compartment, and a G1311B diode-array detector. The column used was a Synergi-MAX-RP (Phenomenex, Torrance, Calif.) 100 AÅ 50×4.6 2.5 μm. The run on the HPLC was a gradient run with 0.1% TFA in water and acetonitrile. Absorbance was measured at 262 nanometers (nm). Standards of coelenterazine-h and its known degradants were run to confirm both the retention time and absorbance trace. 5 μl of each solution was injected and the retention time of coelenterazine-h was 4.7 minutes at room temperature.
(§2) The results of the HPLC analysis are shown below in Tables 4 and 5 and FIGS. 2A and 2B, in which the values are reported as relative peak area percentage at 262 nm (i.e., the lamba max of the substrate). […] In each of FIGS. 2A and 2B, diamond is 1.25 mM coelenterazine-h incubated over time with or without 225 mM ATT, respectively, at −20° C., triangle is 1.25 mM coelenterazine-h incubated over time with or without 225 mM ATT, respectively, at room temperature (RT), star is 1.25 mM coelenterazine-h incubated over time with or without 225 mM ATT, respectively, at 40° C., and cross is 1.25 mM coelenterazine-h incubated over time with or without 225 mM ATT, respectively, at 60° C.
From the HPLC analysis, the half-life of coelenterazine-h in the presence of ATT at 40° C. and 60° C. was calculated to be 20 days and 5 days, respectively, while the half-life of coelenterazine-h in the absence of ATT at 20° C., 40° C. and 60° C. was calculated to be 24 days, 7.5 days and 2 days, respectively (see Table 6 below).
Additionally, Arrhenius plots were generated for coelenterazine-h in the presence and absence of ATT to calculate the half-life of coelenterazine-h at various temperatures. The Arrhenius equation is as follows: […]
In FIG. 9, the slope was −8131.2, the intercept was 22.6157, and R^2 was 0.9994.
In FIG. 10, the slope was −7310.53, the intercept was 21.4386, and R^2 was 0.9964.

[2] = Stability of 1.25 mM coelenterazine-h-h in 50% ethanol and 50% propylene glycol with or without 225 mM ATT, HPLC and Arrhenius plots; format: physicochemical
Method: The stability of coelenterazine-h-h in the presence and absence of ATT was measured over time at different temperatures. Specifically, 1.25 mM coelenterazine-h-h was present in a solution of 50% ethanol and 50% propylene glycol (i.e., the solution without ATT) or a solution of 50% ethanol and 50% propylene glycol with 225 mM ATT (i.e., the solution with ATT). These two solutions were incubated at −20° C., room temperature (RT), 40° C., or 60° C. and analyzed at 0 days, 1 day, 3 days, 7 days, 15 days, and 30 days.
as §1, with “coelenterazine-h-h” for “coelenterazine-h”, “coelenterazine-h-h” for “coelenterazine-h was 4.7 minutes”, “temperature was 5.5 minutes.” for “temperature.”
as §2, with “Tables 7” for “Tables 4”, “and 8” for “and 5”, “FIGS. 3A” for “FIGS. 2A”, “and 3B,” for “and 2B,”, “mM coelenterazine-h-h” for “mM coelenterazine-h”
From the HPLC analysis, the half-life of coelenterazine-h-h in the presence of ATT at 60° C. was calculated to be 10 days while the half-life of coelenterazine-h-h in the absence of ATT at 40° C. and 60° C. was calculated to be 27 days and 8 days, respectively (see Table 9 below).
Additionally, Arrhenius plots were generated for coelenterazine-h-h in the presence and absence of ATT to calculate the half-life of coelenterazine-h-h at various temperatures. The Arrhenius equation is as follows: […]
In FIG. 11, the slope was −10740.9, the intercept was 30.0575, and R^2 was 0.9967.
In FIG. 12, the […], and R^2 was 0.9648.

[3] = decomposition of coelenterazine-h
[4] = solution in 50% ethanol and 50% propylene glycol, 40° C., read-out: T1/2 Calculated from Arrhenius (converted)
[5] = solution of 50% ethanol and 50% propylene glycol, 40° C., read-out: T1/2 Estimated from graph (converted)
[6] = solution of 50% ethanol and 50% propylene glycol, 60° C., read-out: T1/2 Estimated from graph (converted)
[7] = decomposition of coelenterazine-h-h

## O=c1c(Cc2ccccc2)nc2c(Cc3ccccc3)[nH]c(-c3ccc(O)cc3)cn1-2 [Coelenterazine-h (15-957-39), coelenterazine-h]
[1]; 40° C., 0 days
  relative peak area percentage at 262 nm: 95.5%
[1]; 40° C., 1 day
  relative peak area percentage at 262 nm: 84.3%
[1]; 40° C., 3 days
  relative peak area percentage at 262 nm: 71.5%
[1]; 40° C., 7 days
  relative peak area percentage at 262 nm: 54.2%
[1]; 40° C., 15 days
  relative peak area percentage at 262 nm: 26.7%
[1]; 40° C., 30 days
  relative peak area percentage at 262 nm: 1.6%
[1]; 60° C., 0 days
  relative peak area percentage at 262 nm: 95.5%
[1]; 60° C., 1 day
  relative peak area percentage at 262 nm: 63.6%
[1]; 60° C., 3 days
  relative peak area percentage at 262 nm: 32.3%
[1]; 60° C., 7 days
  relative peak area percentage at 262 nm: 1.2%
[1]; RT, 0 days
  relative peak area percentage at 262 nm: 95.5%
[1]; RT, 1 day
  relative peak area percentage at 262 nm: 92.9%
[1]; RT, 3 days
  relative peak area percentage at 262 nm: 88.1%
[1]; RT, 7 days
  relative peak area percentage at 262 nm: 80.7%
[1]; RT, 15 days
  relative peak area percentage at 262 nm: 66.7%
[1]; RT, 30 days
  relative peak area percentage at 262 nm: 36.6%
[1]; [3]
  Arrhenius plot intercept: 21.4386
  Arrhenius plot slope: −7310.53
[1]; [4]
  half-life at 1.25 mM: 4.7 days
[1]; solution of 50% ethanol and 50% propylene glycol, 20° C., read-out: T1/2 Calculated from Arrhenius (converted)
  half-life at 1.25 mM: 23.2 days
[1]; solution of 50% ethanol and 50% propylene glycol, 20° C., read-out: T1/2 Estimated from graph (converted)
  half-life at 1.25 mM: 24 days
[1]; [5]
  half-life at 1.25 mM: 7.5 days
[1]; solution of 50% ethanol and 50% propylene glycol, 60° C., read-out: T1/2 Calculated from Arrhenius (converted)
  half-life at 1.25 mM: 1.2 days
[1]; [6]
  half-life at 1.25 mM: 2 days
[1]; solution of 50% ethanol and 50% propylene glycol, −20° C., read-out: T1/2 Calculated from Arrhenius (converted)
  half-life at 1.25 mM: 1210 days
[1]; −20° C., 0 days
  relative peak area percentage at 262 nm: 95.5%
[1]; −20° C., 1 day
  relative peak area percentage at 262 nm: 95.4%
[1]; −20° C., 3 days
  relative peak area percentage at 262 nm: 95.0%
[1]; −20° C., 7 days
  relative peak area percentage at 262 nm: 95.0%
[1]; −20° C., 15 days
  relative peak area percentage at 262 nm: 94.6%
[1]; −20° C., 30 days
  relative peak area percentage at 262 nm: 88.8%

## O=c1c(Cc2ccccc2)nc2c(Cc3ccccc3)[nH]c(-c3ccccc3)cn1-2 [Coelenterazine-h-h (1193-25-1), coelenterazine-h-h]
[2]; 40° C., 0 days
  relative peak area percentage at 262 nm: 98.7%
[2]; 40° C., 1 day
  relative peak area percentage at 262 nm: 98.0%
[2]; 40° C., 3 days
  relative peak area percentage at 262 nm: 95.1%
[2]; 40° C., 7 days
  relative peak area percentage at 262 nm: 89.1%
[2]; 40° C., 15 days
  relative peak area percentage at 262 nm: 74.9%
[2]; 40° C., 30 days
  relative peak area percentage at 262 nm: 46.0%
[2]; 60° C., 0 days
  relative peak area percentage at 262 nm: 98.7%
[2]; 60° C., 1 day
  relative peak area percentage at 262 nm: 94.3%
[2]; 60° C., 3 days
  relative peak area percentage at 262 nm: 80.0%
[2]; 60° C., 7 days
  relative peak area percentage at 262 nm: 59.1%
[2]; 60° C., 15 days
  relative peak area percentage at 262 nm: 0.2%
[2]; RT, 0 days
  relative peak area percentage at 262 nm: 98.7%
[2]; RT, 1 day
  relative peak area percentage at 262 nm: 98.2%
[2]; RT, 3 days
  relative peak area percentage at 262 nm: 97.5%
[2]; RT, 7 days
  relative peak area percentage at 262 nm: 94.4%
[2]; RT, 15 days
  relative peak area percentage at 262 nm: 86.6%
[2]; RT, 30 days
  relative peak area percentage at 262 nm: 85.7%
[2]; [7]
  Arrhenius plot intercept: 30.8352
  Arrhenius plot slope: −10650.1
[2]; solution in 50% ethanol and 50% propylene glycol, 20° C., read-out: T1/2 Calculated from Arrhenius (converted)
  half-life at 1.25 mM: 172 days
[2]; [4]
  half-life at 1.25 mM: 16.9 days
[2]; solution in 50% ethanol and 50% propylene glycol, 60° C., read-out: T1/2 Calculated from Arrhenius (converted)
  half-life at 1.25 mM: 2.2 days
[2]; [5]
  half-life at 1.25 mM: 27 days
[2]; [6]
  half-life at 1.25 mM: 8 days
[2]; −20° C., 0 days
  relative peak area percentage at 262 nm: 98.7%
[2]; −20° C., 1 day
  relative peak area percentage at 262 nm: 98.6%
[2]; −20° C., 3 days
  relative peak area percentage at 262 nm: 98.2%
[2]; −20° C., 7 days
  relative peak area percentage at 262 nm: 98.4%
[2]; −20° C., 15 days
  relative peak area percentage at 262 nm: 97.9%
[2]; −20° C., 30 days
  relative peak area percentage at 262 nm: 98.5%
